Biological target: T1, human mGluR5a receptor (Homo sapiens, UniProt P41594)
T1 construct: cDNA subcloned into pcDNA3.1(-)
Assay: Cell-based functional Ca2+ mobilization assay (FDSS), potentiation of glutamate EC20 response
Details: for pEC50 / EC50: HEK cells transfected with human mGluR5 (H10H or H12H), in presence of EC20 glutamate; for EC50: read-out: EC50; for Emax (%) / Emax: maximum % effect in concentration-response curve, as percent of response to maximally effective glutamate
Experimental: Human embryonic kidney (HEK) cells transfected with rat mGluR5 were plated in clear bottom assay plates for assay in a Functional Drug Screening System (FDSS). In the alternative assay, HEK cells transfected with human mGluR5 were plated for assay in the FDSS. In some cases the HEK cells transfected with human mGluR5 were the H10H cell line. Alternatively, the HEK cells transfected with human mGluR5 were the H12H cell line. […] The cells were loaded with a Ca^2+-sensitive fluorescent dye (e.g., Fluo-4), and the plates were washed and placed in the FDSS instrument. After establishment of a fluorescence baseline for twelve seconds, the compounds of the present invention were added to the cells, and the response in cells was measured. Alternatively, in various further aspects, after establishment of a fluorescence baseline for about three seconds, the compounds of the present invention were added to the cells, and the response in cells was measured. Five minutes later, an mGluR5 agonist (e.g., glutamate, 3,5-dihydroxyphenylglycine, or quisqualate) was added to the cells, and the response of the cells was measured.
The above described assay operated in two modes. In the first mode, a range of concentrations of the present compounds were added to cells, followed by a single fixed concentration of agonist. If a compound acted as a potentiator, an EC50 value for potentiation and a maximum extent of potentiation by the compound at this concentration of agonist was determined by non-linear curve fitting. In the second mode, several fixed concentrations of the present compounds were added to various wells on a plate, followed by a range of concentrations of agonist for each concentration of present compound; the EC50 values for the agonist at each concentration of compound were determined by non-linear curve fitting. A decrease in the EC50 value of the agonist with increasing concentrations of the present compounds (a leftward shift of the agonist concentration-response curve) is an indication of the degree of mGluR5 potentiation at a given concentration of the present compound. An increase in the EC50 value of the agonist with increasing concentrations of the present compounds (a rightward shift of the agonist concentration-response curve) is an indication of the degree of mGluR5 antagonism at a given concentration of the present compound. The second mode also indicates whether the present compounds also affect the maximum response to mGluR5 to agonists.
The mGluR5 activity was determined using the metabotropic glutamate receptor activity assays in human embryonic kidney cells as described herein, wherein the human embryonic kidney cells were transfected with human mGluR5. The compounds in Table 1 were synthesized with methods identical or analogous to those shown herein. The requisite starting materials were commercially available, described in the literature, or readily synthesized by one skilled in the art of organic synthesis. The compound number given in Table I corresponds to the compound number in Table II and the structure given therein.
Human mGluR5a cDNA in pCMV6-XL6 mammalian expression plasmid was purchased from OriGene Technologies, Inc. (catalogue number SC326357) and subcloned into pcDNA3.1(−). Human embryonic kidney (HEK) 293A cells were then transfected with human mGluR5a pcDNA3.1(−) using LipofectAmine-2000 (Invitrogen) and monoclones were selected and tested for functional response using a Ca^2+ mobilization assay. Monoclones were named for the species (“H” for human) plus the location on the plate (e.g. “10H”).
HEK cells transfected with the human mGluR5a receptor (H10H or H12H cell line) were plated at 15,000 cells/well in clear-bottomed poly-D-lysine-coated assay plates (BD Falcon) in glutamate-glutamine-free growth medium and incubated overnight at 37° C. and 5% CO2.

T1 sequence (P41594 21-1180 isoform P41594-2 limits assumed): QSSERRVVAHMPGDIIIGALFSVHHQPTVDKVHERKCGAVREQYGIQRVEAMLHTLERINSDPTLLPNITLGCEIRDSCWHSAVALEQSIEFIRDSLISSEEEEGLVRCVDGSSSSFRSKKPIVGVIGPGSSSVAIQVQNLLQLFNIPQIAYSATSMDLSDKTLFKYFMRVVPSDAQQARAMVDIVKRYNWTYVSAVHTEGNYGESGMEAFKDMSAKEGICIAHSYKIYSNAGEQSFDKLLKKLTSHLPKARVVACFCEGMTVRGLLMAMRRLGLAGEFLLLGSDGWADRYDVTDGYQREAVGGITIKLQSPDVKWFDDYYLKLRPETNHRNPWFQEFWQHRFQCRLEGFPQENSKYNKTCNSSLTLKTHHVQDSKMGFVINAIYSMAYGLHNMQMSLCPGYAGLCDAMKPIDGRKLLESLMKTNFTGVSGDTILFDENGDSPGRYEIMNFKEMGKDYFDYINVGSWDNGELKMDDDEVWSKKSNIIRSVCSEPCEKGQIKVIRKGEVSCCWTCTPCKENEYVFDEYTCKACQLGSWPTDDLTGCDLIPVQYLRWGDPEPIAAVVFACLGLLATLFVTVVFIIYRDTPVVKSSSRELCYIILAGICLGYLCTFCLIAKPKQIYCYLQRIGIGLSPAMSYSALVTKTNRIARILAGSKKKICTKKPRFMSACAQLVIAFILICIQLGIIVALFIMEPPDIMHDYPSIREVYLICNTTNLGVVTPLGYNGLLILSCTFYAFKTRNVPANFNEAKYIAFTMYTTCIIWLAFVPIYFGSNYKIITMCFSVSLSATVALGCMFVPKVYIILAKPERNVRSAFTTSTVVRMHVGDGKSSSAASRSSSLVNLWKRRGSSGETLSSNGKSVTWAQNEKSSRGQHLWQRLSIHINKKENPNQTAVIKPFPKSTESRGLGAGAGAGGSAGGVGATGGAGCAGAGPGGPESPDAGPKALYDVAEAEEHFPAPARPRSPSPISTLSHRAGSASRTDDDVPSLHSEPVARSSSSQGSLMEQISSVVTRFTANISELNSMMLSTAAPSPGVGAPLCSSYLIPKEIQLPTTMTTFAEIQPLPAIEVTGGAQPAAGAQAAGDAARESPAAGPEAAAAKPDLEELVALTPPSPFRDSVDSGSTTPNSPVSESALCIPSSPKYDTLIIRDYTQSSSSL

| SMILES | pEC50 | EC50 [µM] | Emax (%) | Emax [%] |
| --- | --- | --- | --- | --- |
| Cc1cccc(OCc2cc3n(n2)CCN(CC2CC2)C3=O)c1 [Example 168] | 5.18 | 6.61 | 30 |  |
| N#Cc1cccc(OCc2cc3n(n2)CCN(c2ccc(F)cc2)C3=O)c1 [Example 169] | 6.51 | 0.309 | 62 |  |
| O=C1c2cc(COc3cccnc3)nn2CCN1CC1CC1 [Example 170] | <5.00 | > 10 | 45 |  |
| O=C1c2cc(COc3ccccn3)nn2CCN1c1ccc(F)cn1 [Example 172] | 5.99 | 1.02 | 64 |  |
| Cc1cccc(OCc2cc3n(n2)CCN(c2ccc(F)cc2)C3=O)n1 [Example 173] | <5.00 | > 10 | 31 |  |
| Cc1cc(OCc2cc3n(n2)CCN(c2ccc(F)cc2)C3=O)cc(C)n1 [Example 175] |  | > 30.2 |  | 22 |
| O=C1c2cc(COc3ccncc3)nn2CCN1c1ccc(F)cn1 [Example 176] | 5.75 | 1.78 | 64 |  |
| Cc1cccc(OCc2cc3n(n2)CCN(c2ccc(F)cn2)C3=O)c1 [Example 177] | 6.42 | 0.38 | 61 |  |
| Cc1cc(OCc2cc3n(n2)CCN(c2ccc(F)cc2)C3=O)ncc1F [Example 180] | 5.77 | 1.7 | 53 |  |
| Cc1nccc(OCc2cc3n(n2)CCN(c2ccc(F)cc2)C3=O)n1 [Example 182] | 5.49 | 3.24 | 36 |  |
| Cc1ccnc(OCc2cc3n(n2)CCN(c2ccc(F)cc2)C3=O)c1 [Example 184] | 6.45 | 0.355 | 61 |  |
| Cc1ccnc(OCc2cc3n(n2)CCN(c2ccc(F)cc2)C3=O)n1 [Example 186] | <4.52 | > 30.2 | 30 |  |
| O=C1c2cc(COc3cccc(F)c3)nn2CCN1c1ccc(F)cc1 [Example 188] | 6.83 | 0.148 | 66 |  |
| Cc1ccc(OCc2cc3n(n2)CCN(c2ccc(F)cc2)C3=O)cc1 [Example 192] |  | 0.24 |  | 57 |
| Cc1cc(OCc2cc3n(n2)CCN(c2ccc(F)cc2)C3=O)ncn1 [Example 196] | <5.00 | > 10 | 37 |  |
| Cc1ccnc(OCc2cc3n(n2)CCN(c2ccc(F)cc2)C3=O)c1F [Example 198] | 5.76 | 1.74 | 61 |  |
| O=C1c2cc(COc3ccncn3)nn2CCN1c1ccc(F)cc1 [Example 199] | 5.43 | 3.71 | 60 |  |
| O=C1c2cc(COc3ccnnc3)nn2CCN1c1ccc(F)cc1 [Example 201] | <5.00 | > 10 | 46 |  |
| Cc1cc(N2CCn3nc(COc4ccccn4)cc3C2=O)ccc1F [Example 203] | 6.78 | 0.166 | 66 |  |
| Cc1nc(N2CCn3nc(COc4ccccn4)cc3C2=O)ccc1F [Example 205] | 6.41 | 0.389 | 55 |  |
| CC(C)c1cccc(N2CCn3nc(COc4ccccn4)cc3C2=O)n1 [Example 207] | 6.36 | 0.437 | 69 |  |
| COc1ccc(F)c(N2CCn3nc(COc4ccccn4)cc3C2=O)n1 [Example 208] | 6.46 | 0.347 | 69 |  |
| COc1nc(N2CCn3nc(COc4ccccn4)cc3C2=O)ncc1F [Example 209] |  | 0.525 |  | 62 |
| COc1nccc(N2CCn3nc(COc4ccccn4)cc3C2=O)n1 [Example 210] |  | 2.14 |  | 50 |

| SMILES | pEC50 | EC50 [µM] | Emax (%) | Emax [%] |
| --- | --- | --- | --- | --- |
| COc1cncc(N2CCn3nc(COc4ccccn4)cc3C2=O)n1 [Example 213] |  | 0.66 |  | 56 |
| COc1ccccc1N1CCn2nc(COc3ccccn3)cc2C1=O [Example 214] | 5.97 | 1.1 | 54 |  |
| Cc1cccc(N2CCn3nc(COc4ccccn4)cc3C2=O)c1 [Example 216] | 6.39 | 0.41 | 63 |  |
| Cc1ccccc1N1CCn2nc(COc3ccccn3)cc2C1=O [Example 219] | 6.59 | 0.26 | 67 |  |
| Cc1ccc(N2CCn3nc(COc4ccc(F)cc4)cc3C2=O)cc1 [Example 222] | 7.11 | 0.076 | 64 |  |
| Cc1cccc(N2CCn3nc(COc4ccc(F)cc4)cc3C2=O)c1 [Example 224] | 7.02 | 0.095 | 72 |  |
| Cc1cc(N2CCn3nc(COc4ccc(F)cc4)cc3C2=O)ccc1F [Example 225] |  | 0.061 |  | 58 |
| COc1nccnc1N1CCn2nc(COc3ccc(F)cc3)cc2C1=O [Example 226] | 6.08 | 0.83 | 57 |  |
| COc1nccc(N2CCn3nc(COc4ccc(F)cc4)cc3C2=O)n1 [Example 227] | 6.59 | 0.26 | 62 |  |
| COc1cc(N2CCn3nc(COc4ccc(F)cc4)cc3C2=O)ccc1F [Example 228] |  | 0.12 |  | 65 |
| COc1nc(N2CCn3nc(COc4ccc(F)cc4)cc3C2=O)ncc1C [Example 230] | 6.78 | 0.17 | 72 |  |
| COc1cncc(N2CCn3nc(COc4ccc(F)cc4)cc3C2=O)n1 [Example 231] | 6.92 | 0.11 | 67 |  |
| Cc1cccc(OCc2cc3n(n2)CC(C)N(c2ccc(F)cc2)C3=O)c1 (stereo not drawn) [Example 243] | 7.05 | 0.089 | 68 |  |
| CC1Cn2nc(COc3cccc(F)c3)cc2C(=O)N1c1ccc(F)cc1 (stereo not drawn) [Example 244] | 7.25 | 0.056 | 78 |  |
| CC1Cn2nc(COc3ccc(F)cc3)cc2C(=O)N1c1ccc(F)cc1 (stereo not drawn) [Example 245] | 6.86 | 0.138 | 74 |  |
| C[C@@H]1Cn2nc(COc3cccc(C#N)c3)cc2C(=O)N1c1ccc(F)cc1 [Example 246] |  | 0.214 |  | 69 |
| CC1Cn2nc(COc3ccccn3)cc2C(=O)N1c1ccc(F)cc1 (stereo not drawn) [Example 247] | 6.23 | 0.589 | 73 |  |
| CC1Cn2nc(COc3ccccc3)cc2C(=O)N1 (stereo not drawn) [Example 255] | <5.00 | > 10 | 46 |  |
| O=C1c2c(Cl)c(COc3ccccc3)nn2CCN1CC1CC1 [Example 259] | <4.52 | > 30.2 | 14 |  |
| O=C1c2c(Cl)c(COc3ccccc3)nn2CCN1c1ccc(F)cc1 [Example 260] | <4.52 | > 30.2 | 17 |  |
| Cc1c(COc2ccccc2)nn2c1C(=O)N(CC1CC1)CC2 [Example 261] |  | > 30.2 |  | 23 |
| Cc1c(COc2ccccc2)nn2c1C(=O)N(c1ccc(F)cc1)CC2 [Example 262] | 6.05 | 0.891 | 32 |  |
| O=C1c2cc(COc3ccccc3)nn2CC(CO)N1c1ccc(F)cc1 (stereo not drawn) [Example 265] | 5.65 | 2.24 | 60 |  |
| O=C1c2cc(COc3ccccc3)nn2CC(CF)N1c1ccc(F)cc1 (stereo not drawn) [Example 266] | 6.94 | 0.115 | 65 |  |
